≈ marks a conversion by molar mass, not a printed value.

Broadly, the inhibition is the relative decrease from the control value, in per cent. One may read the MIC as the least concentration at which growth counts as inhibited. Higher therefore signals a less susceptible organism. Usually CC50 stands for the concentration at which the toxic effect on the cells reaches its halfway point. Higher therefore signals better tolerance by the cells.

Data set [1] relates to Staphylococcus aureus. The data set can be described thus: Antibacterial activity against Staphylococcus aureus MRSA ATCC 43300; Growth inhibition at 32 ug/mL in CAMBH media using NBS plates. Format: functional, ATCC 43300; MRSA. Conditions: ASSAY_TEST Inhibition of Bacterial Growth, CONC 32 ug.mL-1, detection method Absorption (OD600), MEDIA CAMHB, plate type NBS, 384well, time 18 hr.

Data set [2] concerns Escherichia coli. The data set can be described thus: Antibacterial activity against Escherichia coli ATCC 25922; Growth inhibition at 32 ug/mL in CAMBH media using NBS plates. Format: functional, ATCC 25922; Type strain. Conditions: Type strain, ASSAY_TEST Inhibition of Bacterial Growth, CONC 32 ug.mL-1, detection method Absorption (OD600), MEDIA CAMHB, plate type NBS, 384well, time 18 hr.

The test system of data set [3] is Klebsiella pneumoniae. The data set can be described thus: Antibacterial activity against Klebsiella pneumoniae MDR ATCC 70063; Growth inhibition at 32 ug/mL in CAMBH media using NBS plates. Format: functional, ATCC 700603; MDR. To be noted: ATCC 700603, ASSAY_TEST Inhibition of Bacterial Growth, CONC 32 ug.mL-1, detection method Absorption (OD600), MEDIA CAMHB, plate type NBS, 384well, time 18 hr.

Data set [4] has as its system Pseudomonas aeruginosa. The data set can be described thus: Antibacterial activity against Pseudomonas aeruginosa ATCC 27853; Growth inhibition at 32 ug/mL in CAMBH media using NBS plates. The data set is classed as functional, ATCC 27853; Type strain. Conditions: Type strain, ASSAY_TEST Inhibition of Bacterial Growth, CONC 32 ug.mL-1, detection method Absorption (OD600), MEDIA CAMHB, plate type NBS, 384well, time 18 hr.

Data set [5] concerns Acinetobacter baumannii. The data set can be described thus: Antibacterial activity against Acinetobacter baumannii ATCC 19606; Growth inhibition at 32 ug/mL in CAMBH media using NBS plates. Format: functional, ATCC 19606; Type strain. To be noted: Type strain, ASSAY_TEST Inhibition of Bacterial Growth, CONC 32 ug.mL-1, detection method Absorption (OD600), MEDIA CAMHB, plate type NBS, 384well, time 18 hr.

Data set [6] deals with Candida albicans. The data set can be described thus: Antifungal activity against Candida albicans ATCC 90028; Growth inhibition at 32 ug/mL in YNB media using NBS plates. Format: functional, ATCC 90028; CLSI reference. To be noted: CLSI reference, ASSAY_TEST Inhibition of Fungal Growth, CONC 32 ug.mL-1, detection method Absorption (OD600), plate type NBS, 384well, time 18 hr.

Data set [7] deals with Cryptococcus neoformans. The data set can be described thus: Antifungal activity against Cryptococcus neoformans H99 ATCC 208821; Growth inhibition at 32 ug/mL in YNB media using NBS plates. The data set is classed as functional, ATCC 208821; H99 Type strain. Conditions: H99 Type strain, ASSAY_TEST Inhibition of Fungal Growth, CONC 32 ug.mL-1, detection method Resazurin, Absorption (OD600-OD570), plate type NBS, 384well, time 18 hr. On the technique in general: The colour change of resazurin is a common sign of viable cells or microbes.

For data set [8], the system named is Staphylococcus aureus. The data set can be described thus: Antibacterial activity against Staphylococcus aureus MRSA ATCC 43300; MIC in CAMBH media using NBS plates. The data set is classed as functional, ATCC 43300; MRSA. Conditions: ASSAY_TEST Inhibition of Bacterial Growth, detection method Absorption (OD600), MEDIA CAMHB, plate type NBS, 384well, time 18 hr.

For data set [9], the system named is Escherichia coli. The data set can be described thus: Antibacterial activity against Escherichia coli ATCC 25922; MIC in CAMBH media using NBS plates. Format: functional, ATCC 25922; Type strain. Conditions: Type strain, ASSAY_TEST Inhibition of Bacterial Growth, detection method Absorption (OD600), MEDIA CAMHB, plate type NBS, 384well, time 18 hr.
Data set [10] has as its system Klebsiella pneumoniae. The data set can be described thus: Antibacterial activity against Klebsiella pneumoniae MDR ATCC 70063; MIC in CAMBH media using NBS plates. The data set is classed as functional, ATCC 700603; MDR. Conditions: ATCC 700603, ASSAY_TEST Inhibition of Bacterial Growth, detection method Absorption (OD600), MEDIA CAMHB, plate type NBS, 384well, time 18 hr.

Data set [11] concerns Pseudomonas aeruginosa. The data set can be described thus: Antibacterial activity against Pseudomonas aeruginosa ATCC 27853; MIC in CAMBH media using NBS plates. The data set is classed as functional, ATCC 27853; Type strain. To be noted: Type strain, ASSAY_TEST Inhibition of Bacterial Growth, detection method Absorption (OD600), MEDIA CAMHB, plate type NBS, 384well, time 18 hr.

The test system of data set [12] is Acinetobacter baumannii. The data set can be described thus: Antibacterial activity against Acinetobacter baumannii ATCC 19606; MIC in CAMBH media using NBS plates. Format: functional, ATCC 19606; Type strain. Conditions: Type strain, ASSAY_TEST Inhibition of Bacterial Growth, detection method Absorption (OD600), MEDIA CAMHB, plate type NBS, 384well, time 18 hr.

Data set [13] has as its system Candida albicans. The data set can be described thus: Antifungal activity against Candida albicans ATCC 90028; MIC in YNB media using NBS plates. The data set is classed as functional, ATCC 90028; CLSI reference. Conditions: CLSI reference, ASSAY_TEST Inhibition of Fungal Growth, detection method Absorption (OD630), plate type NBS, 384well, time 18 hr.
Data set [14] deals with Cryptococcus neoformans. The data set can be described thus: Antifungal activity against Cryptococcus neoformans H99 ATCC 208821; MIC in YNB media using NBS plates. Format: functional, ATCC 208821; H99 Type strain. To be noted: H99 Type strain, ASSAY_TEST Inhibition of Fungal Growth, detection method Resazurin, Absorption (OD600-OD570), plate type NBS, 384well, time 18 hr.

The nature of data set [15]: Cytotoxicity against HEK293 cells; CC50 by Resazurin assay in DMEM (10% FBS) media using TC plates. Format: toxicity, cell-based, ATCC CRL1573. Also on record: time 18 hr. Conditions: human.

Take `CCN1C(=O)c2cccc3c(-n4cc(CN5CCCNCCN(Cc6cn(-c7ccc8c9c(cccc79)C(=O)N(CC)C8=O)nn6)CCCNCC5)nn4)ccc(c23)C1=O.O=C(O)C(F)(F)F.O=C(O)C(F)(F)F`: the inhibition at 32 µg/mL turned out to be 54% in data set [1]; 20.4% in data set [2]; 17.2% in data set [3]; 15.2% in data set [4]; 31.4% in data set [5]; 5.2% in [6]. In [7], the inhibition at 32 µg/mL worked out at 1.4%. The MIC in [8], in [9], in data set [10], in data set [11], in [12] and in [13] was > 32 mg/L in each case. The MIC in data set [14] was > 32 mg/L. For the same molecule, in [15], the CC50 at 18 h is > 32 mg/L.
Take `Clc1ccc(-c2nnc3cncc(OCCc4ccccc4)n23)cc1`: the inhibition at 32 µg/mL in data set [1] was 14.5%; in data set [2], 5.2%; in data set [3], 7.5%; in [4], 8.6%; in [5], 5.7%; in [6], 88.8%. The inhibition at 32 µg/mL in [7] is -0.5%. Besides, the MIC in [8] is > 32 mg/L; in data set [9] it was > 32 mg/L; in data set [10] it was > 32 mg/L; in [11], > 32 mg/L; in data set [12] it was > 32 mg/L; in data set [13], 16 mg/L (≈ 45.6 µM). Besides, in [14], the MIC is > 32 mg/L. In data set [15], the half-maximal cytotoxic concentration (CC50) at 18 h is > 32 mg/L.
`COc1ccc(-n2c(C)cc(CN3CCC4(CC3)OCCc3sccc34)c2C)cc1`: the inhibition at 32 µg/mL in data set [1] was determined as 55%; in data set [2] it was 22.4%; in data set [3] it was 15.4%; in data set [4] it was 22.6%; in data set [5] it was 4.6%; in data set [6], 2.4%. The inhibition at 32 µg/mL in [7] is -0.2%. In addition, the MIC in data set [8], in [9], in data set [10], in data set [11], in data set [12] and in data set [13] was > 32 mg/L throughout. The MIC in data set [14] was > 32 mg/L. In data set [15], the CC50 at 18 h was > 32 mg/L.
